# Legend:
# Assay type in all cases: physicochemical
# [1] = Compatibility of atorvastatin and coating material: related compounds on storage under severe conditions (HPLC); settings: atorvastatin 0.5 mg with coating material 2.5 mg, vacuum-dried, stored at about 60° C., relative humidity about 85%
# Description: (§1) To form an atorvastatin-containing drug-coating layer, compatibility of atorvastatin with various coating materials (coating agents and surfactants) were evaluated. About 2.5 mg of each coating material as shown in Table 2 was dissolved in 5 mL of a 75% aqueous ethanol solution, and about 0.5 mg of atorvastatin was added thereto and then completely dissolved. About 0.5 mg of atorvastatin was completely dissolved in 5 mL of a 75% aqueous ethanol solution as a control group for the compatibility evaluation. Each of the resulting solutions was vacuum-dried at about 50° C. for about 24 hours to completely remove the solvent, thereby preparing test samples. While each test temple was stored under severe conditions (at a temperature of about 60° C. and a relative humidity of about 85%), a degree of generation of related compounds with time was observed. The related compounds were analyzed by HPLC in the following manner.
# <Atorvastatin Analysis Method>
# (§2) Each test sample was dissolved in 25 mL of methanol, followed by a 2-fold dilution with a mobile phase and filtration through a 0.45-um filter, thereby preparing analysis samples.
# Mobile phase; acetonitrile: 0.5% (v/v) aqueous formic acid solution=50:50
# [2] = Compatibility of pitavastatin and coating material: related compounds on storage under severe conditions (HPLC); settings: pitavastatin 0.5 mg with coating material 2.5 mg, vacuum-dried, stored at about 60° C., relative humidity about 85%
# Description: as §1, with “To form a pitavastatin-containing drug-coating layer,” for “To form an atorvastatin-containing drug-coating layer,”, “compatibility of pitavastatin with various” for “compatibility of atorvastatin with various”, “in Table 3 was dissolved” for “in Table 2 was dissolved”, “mg of pitavastatin was added” for “mg of atorvastatin was added”, “mg of pitavastatin alone was completely” for “mg of atorvastatin was completely”, “degree of generated related compounds” for “degree of generation of related compounds”
# <Pitavastatin Analysis Method>
# as §2
# Mobile phase; acetonitrile: 0.1% (v/v) aqueous trifluoroacetic acid (TFA) solution=60:40
# [3] = Compatibility of rosuvastatin and coating material: related compounds on storage under severe conditions (HPLC); settings: rosuvastatin 0.5 mg with coating material 2.5 mg, vacuum-dried, stored at about 60° C., relative humidity about 85%
# Description: To form a rosuvastatin-containing drug-coating layer, compatibility of rosuvastatin with various coating materials (coating agents and surfactants) were evaluated. About 2.5 mg of each coating material as shown in Table 1 was dissolved in 5 mL of a 75% aqueous ethanol solution, and about 0.5 mg of rosuvastatin was added thereto and then completely dissolved. About 0.5 mg of rosuvastatin alone was completely dissolved in 5 mL of a 75% aqueous ethanol solution as a control group for the compatibility evaluation. Each of the resulting solutions was vacuum-dried at about 50° C. for about 24 hours to completely remove the solvent, thereby preparing a test sample. While each test temple was stored under severe conditions (at a temperature of about 60° C. and a relative humidity of about 85%), a degree of generation of related compounds with time was observed. The related compounds were analyzed by high-performance liquid chromatography (HPLC) in the following manner.
# <Rosuvastatin Analysis Method>
# The test sample was dissolved in 25 mL of methanol, followed by a 2-fold dilution with a mobile phase and filtration through a 0.45-um filter, thereby preparing an analysis sample.
# Mobile phase; Acetonitrile: 0.5% (v/v) aqueous formic acid solution=50:50
structure (smiles),measurement,setting,value
CC(C)c1c(C(=O)Nc2ccccc2)c(-c2ccccc2)c(-c2ccc(F)cc2)n1CC[C@@H](O)C[C@@H](O)CC(=O)O [Atorvastatin],"Related compound (%, 1st week)",[1],0.3%
same,"Related compound (%, 1st week)",[1]; listed as atorvastatin,About 0.3%
same,"Related compound (%, 3rd week)",[1],3.3%
same,"Related compound (%, 3rd week)",[1]; listed as atorvastatin,about 3.3%
O=C(O)C[C@H](O)C[C@H](O)/C=C/c1c(C2CC2)nc2ccccc2c1-c1ccc(F)cc1 [Pitavastatin],"Related compound (%, 1st week)",[2],0.1%
same,"Related compound (%, 1st week)",[2]; listed as pitavastatin,About 0.1%
same,"Related compound (%, 3rd week)",[2],0.2%
same,"Related compound (%, 3rd week)",[2]; listed as pitavastatin,about 0.2%
CC(C)c1nc(N(C)S(C)(=O)=O)nc(-c2ccc(F)cc2)c1/C=C/[C@@H](O)C[C@@H](O)CC(=O)O [Rosuvastatin],"Related compound (%, 1st week)",[3],1.4%
same,"Related compound (%, 1st week)",[3]; listed as rosuvastatin,About 1.4%
same,"Related compound (%, 3rd week)",[3],5.2%
same,"Related compound (%, 3rd week)",[3]; listed as rosuvastatin,about 5.4%
